Assay results from article PMC4501720 (PLoS ONE, 2015).

Tested on: whole blood cells of group 3 pigs vaccinated with BCG-pAg85A
Assay type: cell-based, pigs (Sus scrofa domestica)

Substance	IFN-γ levels, BCG / pAg85A animal number 1	IFN-γ levels, BCG / pAg85A animal number 2	IFN-γ levels, BCG / pAg85A animal number 3	IFN-γ levels, BCG / pAg85A animal number 4	IFN-γ levels, BCG / pAg85A animal number 5	IFN-γ levels, BCG / pAg85A animal number 6
51–70: synthetic overlapping peptide of mature Ag85A, aa 51–70 (WDINTPAFEWYDQSGLSVVM; UniProt P9WQP3 94-113, looked up, fragment)	5,083 pg/mL	<5 pg/mL	<5 pg/mL	<5 pg/mL	3,125 pg/mL	<5 pg/mL
111–130: synthetic overlapping peptide of mature Ag85A, aa 111–130 (ANRHVKPTGSAVVGLSMAAS; UniProt P9WQP3 154-173, looked up, fragment)	15,124 pg/mL	2,879 pg/mL	1,415 pg/mL	33 pg/mL	961 pg/mL	<5 pg/mL
251–270: synthetic overlapping peptide of mature Ag85A, aa 251–270 (NGVFDFPDSGTHSWEYWGAQ; UniProt P9WQP3 294-313, looked up, fragment)	410 pg/mL	317 pg/mL	<5 pg/mL	11 pg/mL	161 pg/mL	163 pg/mL
261–280: synthetic overlapping peptide of mature Ag85A, aa 261–280 (THSWEYWGAQLNAMKPDLQR; UniProt P9WQP3 304-323, looked up, fragment)	31 pg/mL	<5 pg/mL	<5 pg/mL	157 pg/mL	728 pg/mL	1,240 pg/mL
Ag85A tub: recombinant E. coli derived histidine-tagged Ag85A of M. tuberculosis	145,331 pg/mL	50,084 pg/mL	68,850 pg/mL	3,712 pg/mL	27,544 pg/mL	14,506 pg/mL
221–240: synthetic overlapping peptide of mature Ag85A, aa 221–240 (GNNLPAKFLEGFVRTSNIKF; UniProt P9WQP3 264-283, looked up, fragment)	470 pg/mL	4,455 pg/mL	1,075 pg/mL	<5 pg/mL	303 pg/mL	2,980 pg/mL
81–100: synthetic overlapping peptide of mature Ag85A, aa 81–100 (DWYQPACGKAGCQTYKWETF; UniProt P9WQP3 124-143, looked up, fragment)	1,900 pg/mL	56 pg/mL	2,968 pg/mL	170 pg/mL	1,547 pg/mL	<5 pg/mL
231–250: synthetic overlapping peptide of mature Ag85A, aa 231–250 (GFVRTSNIKFQDAYNAGGGH; UniProt P9WQP3 274-293, looked up, fragment)	11,639 pg/mL	13,693 pg/mL	423 pg/mL	<5 pg/mL	1,018 pg/mL	665 pg/mL
1–20: synthetic overlapping peptide of mature Ag85A, aa 1–20 (FSRPGLPVEYLQVPSPSMGR; UniProt P9WQP3 44-63, looked up, fragment)	<5 pg/mL	305 pg/mL	<5 pg/mL	<5 pg/mL	84 pg/mL	13,875 pg/mL
191–210: synthetic overlapping peptide of mature Ag85A, aa 191–210 (NDPLLNVGKLIANNTRVWVY; UniProt P9WQP3 234-253, looked up, fragment)	266 pg/mL	<5 pg/mL	156 pg/mL	38 pg/mL	560 pg/mL	<5 pg/mL
161–180: synthetic overlapping peptide of mature Ag85A, aa 161–180 (PTLIGLAMGDAGGYKASDMW; UniProt P9WQP3 204-223, looked up, fragment)	1,501 pg/mL	<5 pg/mL	556 pg/mL	37 pg/mL	463 pg/mL	<5 pg/mL
11–30: synthetic overlapping peptide of mature Ag85A, aa 11–30 (LQVPSPSMGRDIKVQFQSGG; UniProt P9WQP3 54-73, looked up, fragment)	<5 pg/mL	1,115 pg/mL	<5 pg/mL	<5 pg/mL	80 pg/mL	<5 pg/mL
181–200: synthetic overlapping peptide of mature Ag85A, aa 181–200 (GPKEDPAWQRNDPLLNVGKL; UniProt P9WQP3 224-243, looked up, fragment)	33 pg/mL	<5 pg/mL	8 pg/mL	17 pg/mL	<5 pg/mL	<5 pg/mL
